Assay results: BindingDB's records for doi:10.1021/jm960594+ (Nippon Zoki Pharmaceutical, 1997)

Each molecule was assayed against T1, Aldo-keto reductase family 1 member A1 (Rattus norvegicus, UniProt P51635) (assay: In vitro inhibitory activity against rat kidney aldehyde reductase(ALR).).
T1 sequence (P51635 whole entry): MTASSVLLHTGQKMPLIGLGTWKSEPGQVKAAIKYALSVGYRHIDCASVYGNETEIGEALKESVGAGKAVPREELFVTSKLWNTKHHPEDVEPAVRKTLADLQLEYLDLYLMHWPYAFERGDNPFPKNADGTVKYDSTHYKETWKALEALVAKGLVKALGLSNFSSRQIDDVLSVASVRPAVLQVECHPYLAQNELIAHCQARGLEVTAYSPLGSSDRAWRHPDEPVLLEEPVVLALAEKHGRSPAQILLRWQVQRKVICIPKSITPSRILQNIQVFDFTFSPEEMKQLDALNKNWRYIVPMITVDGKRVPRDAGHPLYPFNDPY

IC50 [µM]	Compound
> 100	O=C(O)Cn1cc(O)n(Cc2cccc([N+](=O)[O-])c2)c1=O [[3-(3-Nitro-benzyl)-2,4-dioxo-imidazolidin-1-yl]-acetic acid]
> 100	O=C(O)Cn1c(=O)cc(O)n(Cc2cccc([N+](=O)[O-])c2)c1=O [[3-(3-Nitro-benzyl)-2,4,6-trioxo-tetrahydro-pyrimidin-1-yl]-acetic acid]
> 100	O=C(O)Cn1c(O)cn(Cc2cccc([N+](=O)[O-])c2)c1=O [[3-(3-Nitro-benzyl)-2,5-dioxo-imidazolidin-1-yl]-acetic acid]
> 100	O=C(O)Cn1c(O)c(O)n(Cc2cccc([N+](=O)[O-])c2)c1=O
